# How the values were obtained:
# late watergrass = assay: Test Example 1: herbicidal activity, application before weed generation under submerged conditions (Table 16, symbol A); assay type: in vivo, late watergrass (Echinochloa oryzicola); settings: amount of applied herbicide 320 g/ha
# Summary of the method: (§1)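 Alluvial soil was flooded to 4 cm depth, weed seeds were sown mixed and 2.5-leaf rice seedlings were transplanted. On sowing day, the compound's emulsion, diluted in water to a set dose, was applied to the water surface. Plants grew at 25–30 °C and were scored 0–5 after three weeks.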
# Japanese bulrush = assay: Test Example 1: herbicidal activity, application before weed generation under submerged conditions (Table 16, symbol B); assay type: in vivo, Japanese bulrush (Schoenoplectus juncoides); settings: amount of applied herbicide 320 g/ha
# Summary of the method: as §1
# oval-leafed pondweed = assay: Test Example 1: herbicidal activity, application before weed generation under submerged conditions (Table 16, symbol C); assay type: in vivo, oval-leafed pondweed (Monochoria vaginalis); settings: amount of applied herbicide 320 g/ha
# Summary of the method: as §1
# barnyard grass [1] = assay: Test Example 3: herbicidal effect by foliage application, Wagner pot (Table 18, symbol H); assay type: in vivo, barnyard grass (Echinochloa crus-galli); settings: 320 g/ha
# Summary of the method: (§2)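 Plants were sown in alluvial soil held under 0.1–0.5 cm standing water and grown 14 days in a greenhouse at 25–30 °C. An emulsifiable formulation, water-diluted to the set dose, was then sprayed onto the foliage, and effects were scored three weeks later using previously defined criteria.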
# Chinese sprangletop = assay: Test Example 3: herbicidal effect by foliage application, Wagner pot (Table 18, symbol D); assay type: in vivo, chinese sprangletop (Leptochloa chinensis); settings: 320 g/ha
# Summary of the method: as §2
# rice flat sedge = assay: Test Example 3: herbicidal effect by foliage application, Wagner pot (Table 18, symbol E); assay type: in vivo, rice flat sedge (Cyperus iria); settings: 320 g/ha
# Summary of the method: as §2
# southern crabgrass [2] = assay: Test Example 4: herbicidal effect by soil treatment (Table 19, symbol F); assay type: in vivo, southern crabgrass (Digitaria ciliaris); settings: amount of applied herbicide 320 g/ha
# Summary of the method: (§3)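 Soil-surface application: an emulsion agent diluted with water to the predetermined dose is sprayed uniformly over seeds lying under roughly 1.5 cm of sterilized diluvial soil. Boxes stay in a greenhouse at 25° C. to 30° C. Three weeks later, each species is graded on previously defined criteria.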
# green foxtail [3] = assay: Test Example 4: herbicidal effect by soil treatment (Table 19, symbol G); assay type: in vivo, green foxtail (Setaria viridis); settings: amount of applied herbicide 320 g/ha
# Summary of the method: as §3
# barnyard grass [4] = assay: Test Example 4: herbicidal effect by soil treatment (Table 19, symbol H); assay type: in vivo, barnyard grass (Echinochloa crus-galli); settings: amount of applied herbicide 320 g/ha
# Summary of the method: as §3
# wild oat [5] = assay: Test Example 4: herbicidal effect by soil treatment (Table 19, symbol I); assay type: in vivo, wild oat (Avena fatua); settings: amount of applied herbicide 320 g/ha
# Summary of the method: as §3
# blackgrass [6] = assay: Test Example 4: herbicidal effect by soil treatment (Table 19, symbol J); assay type: in vivo, blackgrass (Alopecurus myosuroides); settings: amount of applied herbicide 320 g/ha
# Summary of the method: as §3
# Italian ryegrass [7] = assay: Test Example 4: herbicidal effect by soil treatment (Table 19, symbol K); assay type: in vivo, Italian ryegrass (Lolium multiflorum); settings: amount of applied herbicide 320 g/ha
# Summary of the method: as §3
# windgrass [8] = assay: Test Example 4: herbicidal effect by soil treatment (Table 19, symbol L); assay type: in vivo, windgrass (Apera spica-venti); settings: amount of applied herbicide 320 g/ha
# Summary of the method: as §3
# velvetleaf [9] = assay: Test Example 4: herbicidal effect by soil treatment (Table 19, symbol M); assay type: in vivo, velvetleaf (Abutilon theophrasti); settings: amount of applied herbicide 320 g/ha
# Summary of the method: as §3
# redroot pigweed [10] = assay: Test Example 4: herbicidal effect by soil treatment (Table 19, symbol N); assay type: in vivo, redroot pigweed (Amaranthus retroflexus); settings: amount of applied herbicide 320 g/ha
# Summary of the method: as §3
# lambsquarters [11] = assay: Test Example 4: herbicidal effect by soil treatment (Table 19, symbol O); assay type: in vivo, lambsquarters (Chenopodium album); settings: amount of applied herbicide 320 g/ha
# Summary of the method: as §3
# chickweed [12] = assay: Test Example 4: herbicidal effect by soil treatment (Table 19, symbol P); assay type: in vivo, common chickweed (Stellaria media); settings: amount of applied herbicide 320 g/ha
# Summary of the method: as §3
# false cleavers = assay: Test Example 4: herbicidal effect by soil treatment (Table 19, symbol Q); assay type: in vivo, false cleavers (Galium spurium); settings: amount of applied herbicide 320 g/ha
# Summary of the method: as §3
# persian speedwell [13] = assay: Test Example 4: herbicidal effect by soil treatment (Table 19, symbol R); assay type: in vivo, Persian speedwell (Veronica persica); settings: amount of applied herbicide 320 g/ha
# Summary of the method: as §3
# southern crabgrass [14] = assay: Test Example 5: herbicidal effect by foliage application, plastic box (Table 20, symbol F); assay type: in vivo, southern crabgrass (Digitaria ciliaris); settings: amount of applied herbicide 320 g/ha; foliage application after 14-day growth; evaluated three weeks after application
# Summary of the method: (§4)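 Sow seeds spot-wise in sterilized diluvial soil; cover with ~1.5 cm soil. Grow 14 days in greenhouse, 25° C. to 30° C. Spray foliage with emulsion diluted to predetermined amount. Rate effect after 3 weeks.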
# green foxtail [15] = assay: Test Example 5: herbicidal effect by foliage application, plastic box (Table 20, symbol G); assay type: in vivo, green foxtail (Setaria viridis); settings: amount of applied herbicide 320 g/ha; foliage application after 14-day growth; evaluated three weeks after application
# Summary of the method: as §4
# barnyard grass [16] = assay: Test Example 5: herbicidal effect by foliage application, plastic box (Table 20, symbol H); assay type: in vivo, barnyard grass (Echinochloa crus-galli); settings: amount of applied herbicide 320 g/ha; foliage application after 14-day growth; evaluated three weeks after application
# Summary of the method: as §4
# wild oat [17] = assay: Test Example 5: herbicidal effect by foliage application, plastic box (Table 20, symbol I); assay type: in vivo, wild oat (Avena fatua); settings: amount of applied herbicide 320 g/ha; foliage application after 14-day growth; evaluated three weeks after application
# Summary of the method: as §4
# blackgrass [18] = assay: Test Example 5: herbicidal effect by foliage application, plastic box (Table 20, symbol J); assay type: in vivo, blackgrass (Alopecurus myosuroides); settings: amount of applied herbicide 320 g/ha; foliage application after 14-day growth; evaluated three weeks after application
# Summary of the method: as §4
# Italian ryegrass [19] = assay: Test Example 5: herbicidal effect by foliage application, plastic box (Table 20, symbol K); assay type: in vivo, Italian ryegrass (Lolium multiflorum); settings: amount of applied herbicide 320 g/ha; foliage application after 14-day growth; evaluated three weeks after application
# Summary of the method: as §4
# windgrass [20] = assay: Test Example 5: herbicidal effect by foliage application, plastic box (Table 20, symbol L); assay type: in vivo, windgrass (Apera spica-venti); settings: amount of applied herbicide 320 g/ha; foliage application after 14-day growth; evaluated three weeks after application
# Summary of the method: as §4
# velvetleaf [21] = assay: Test Example 5: herbicidal effect by foliage application, plastic box (Table 20, symbol M); assay type: in vivo, velvetleaf (Abutilon theophrasti); settings: amount of applied herbicide 320 g/ha; foliage application after 14-day growth; evaluated three weeks after application
# Summary of the method: as §4
# redroot pigweed [22] = assay: Test Example 5: herbicidal effect by foliage application, plastic box (Table 20, symbol N); assay type: in vivo, redroot pigweed (Amaranthus retroflexus); settings: amount of applied herbicide 320 g/ha; foliage application after 14-day growth; evaluated three weeks after application
# Summary of the method: as §4
# lambsquarters [23] = assay: Test Example 5: herbicidal effect by foliage application, plastic box (Table 20, symbol O); assay type: in vivo, lambsquarters (Chenopodium album); settings: amount of applied herbicide 320 g/ha; foliage application after 14-day growth; evaluated three weeks after application
# Summary of the method: as §4
# chickweed [24] = assay: Test Example 5: herbicidal effect by foliage application, plastic box (Table 20, symbol P); assay type: in vivo, common chickweed (Stellaria media); settings: amount of applied herbicide 320 g/ha; foliage application after 14-day growth; evaluated three weeks after application
# Summary of the method: as §4
# persian speedwell [25] = assay: Test Example 5: herbicidal effect by foliage application, plastic box (Table 20, symbol R); assay type: in vivo, Persian speedwell (Veronica persica); settings: amount of applied herbicide 320 g/ha; foliage application after 14-day growth; evaluated three weeks after application
# Summary of the method: as §4
structure (smiles),measurement,setting,value
CCCC(=O)Oc1c(C)nn(C)c(=O)c1-c1c(-c2ccc(F)cc2OC)sc2cc(F)c(F)cc12 [5-030],"Herbicidal effect, A: late watergrass",late watergrass,3 (Herbicidal rate of 40% or more and less than 70%)
same,"Herbicidal effect, B: Japanese bulrush",Japanese bulrush,1 (Herbicidal rate of 5% or more and less than 20%)
same,"Herbicidal effect, C: oval-leafed pondweed",oval-leafed pondweed,0 (Herbicidal rate of 5% or less (almost no effect))
same,herbicidal effect on barnyard grass (H),barnyard grass [1],4 (Herbicidal rate of 70% or more and less than 90%)
same,herbicidal effect on Chinese sprangletop (D),Chinese sprangletop,0 (Herbicidal rate of 5% or less (almost no effect))
same,herbicidal effect on rice flat sedge (E),rice flat sedge,0 (Herbicidal rate of 5% or less (almost no effect))
same,"F: southern crabgrass, herbicidal effect grade",southern crabgrass [2],1 (Herbicidal rate of 5% or more and less than 20%)
same,"G: green foxtail, herbicidal effect grade",green foxtail [3],4 (Herbicidal rate of 70% or more and less than 90%)
same,"H: barnyard grass, herbicidal effect grade",barnyard grass [4],2 (Herbicidal rate of 20% or more and less than 40%)
same,"I: wild oat, herbicidal effect grade",wild oat [5],0 (Herbicidal rate of 5% or less (almost no effect))
same,"J: blackgrass, herbicidal effect grade",blackgrass [6],5 (Herbicidal rate of 90% or more (almost completely withered))
same,"K: Italian ryegrass, herbicidal effect grade",Italian ryegrass [7],0 (Herbicidal rate of 5% or less (almost no effect))
same,"L: windgrass, herbicidal effect grade",windgrass [8],5 (Herbicidal rate of 90% or more (almost completely withered))
same,"M: velvetleaf, herbicidal effect grade",velvetleaf [9],3 (Herbicidal rate of 40% or more and less than 70%)
same,"N: redroot pigweed, herbicidal effect grade",redroot pigweed [10],5 (Herbicidal rate of 90% or more (almost completely withered))
same,"O: lambsquarters, herbicidal effect grade",lambsquarters [11],5 (Herbicidal rate of 90% or more (almost completely withered))
same,"P: chickweed, herbicidal effect grade",chickweed [12],5 (Herbicidal rate of 90% or more (almost completely withered))
same,"Q: false cleavers, herbicidal effect grade",false cleavers,0 (Herbicidal rate of 5% or less (almost no effect))
same,"R: persian speedwell, herbicidal effect grade",persian speedwell [13],5 (Herbicidal rate of 90% or more (almost completely withered))
same,"Herbicidal effect by foliage application, F: southern crabgrass",southern crabgrass [14],0 (Herbicidal rate of 5% or less (almost no effect))
same,"Herbicidal effect by foliage application, G: green foxtail",green foxtail [15],0 (Herbicidal rate of 5% or less (almost no effect))
same,"Herbicidal effect by foliage application, H: barnyard grass",barnyard grass [16],2 (Herbicidal rate of 20% or more and less than 40%)
same,"Herbicidal effect by foliage application, I: wild oat",wild oat [17],0 (Herbicidal rate of 5% or less (almost no effect))
same,"Herbicidal effect by foliage application, J: blackgrass",blackgrass [18],4 (Herbicidal rate of 70% or more and less than 90%)
same,"Herbicidal effect by foliage application, K: Italian ryegrass",Italian ryegrass [19],0 (Herbicidal rate of 5% or less (almost no effect))
same,"Herbicidal effect by foliage application, L: windgrass",windgrass [20],5 (Herbicidal rate of 90% or more (almost completely withered))
same,"Herbicidal effect by foliage application, M: velvetleaf",velvetleaf [21],3 (Herbicidal rate of 40% or more and less than 70%)
same,"Herbicidal effect by foliage application, N: redroot pigweed",redroot pigweed [22],3 (Herbicidal rate of 40% or more and less than 70%)
same,"Herbicidal effect by foliage application, O: lambsquarters",lambsquarters [23],3 (Herbicidal rate of 40% or more and less than 70%)
same,"Herbicidal effect by foliage application, P: chickweed",chickweed [24],5 (Herbicidal rate of 90% or more (almost completely withered))
same,"Herbicidal effect by foliage application, R: persian speedwell",persian speedwell [25],0 (Herbicidal rate of 5% or less (almost no effect))

# From patent US20230085307A1, “PYRIDAZINONE COMPOUND AND HERBICIDE” (NISSAN CHEMICAL CORPORATION, priority 2019, published 2023)
